This is an account of results in publication PMC10724293, “New ruthenium-xanthoxylin complex eliminates colorectal cancer stem cells by targeting the heat shock protein 90 chaperone” (Cell Death & Disease, 2023).

Data set [1] deals with 4T1. Description: Alamar blue cytotoxicity assay. The settings on record: Mus musculus, 72 h, read-out: IC50 and 95%CI. Format: cell-based, mouse. As to the method:
(§1) The Alamar blue assay was used to determine cell viability as previously described. Cells were seeded into 96-well plates at a density of 7 × 10^3 cells per well for adherent cells or 3 × 10^4 cells per well for suspended cells. The drug was added to each well after 24 h of incubation for adherent cells or immediately for suspended cells and incubated for an additional 72 h. […] Each well received 100 µM resazurin (Sigma-Aldrich Co. St. Louis, MO, United States) four (for cell lines) or 24 (for primary culture) h before the end of the incubation. A SpectraMax 190 Microplate Reader (Molecular Devices, Sunnyvale, CA, USA) was used to measure absorbance at 570 and 600 nm.
In general terms: Resazurin is reduced to fluorescent resorufin, in cell work by metabolically active cells.

The subject of data set [2] is B16-F10. The experiment in a line: Alamar blue cytotoxicity assay. The settings on record: Mus musculus, 72 h, read-out: IC50 and 95%CI. Format: cell-based, mouse. As to the method:
as §1

Data set [3] relates to A-375. Description: Alamar blue cytotoxicity assay. Format: cell-based, human. The settings on record: Homo sapiens, 72 h, read-out: IC50 and 95%CI. As to the method:
as §1

Data set [4] deals with A549. Description: Alamar blue cytotoxicity assay. Format: cell-based, human. The settings on record: Homo sapiens, 72 h, read-out: IC50 and 95%CI. As to the method: as §1
In data set [5] the test system is CAL 27. Description: Alamar blue cytotoxicity assay. Format: cell-based, human. The settings on record: Homo sapiens, 72 h, read-out: IC50 and 95%CI. As to the method:
as §1

In data set [6] the test system is DU 145. The experiment in a line: Alamar blue cytotoxicity assay. Format: cell-based, human. The settings on record: Homo sapiens, 72 h, read-out: IC50 and 95%CI. As to the method: as §1
Data set [7] has as its system H1299. The experiment in a line: Alamar blue cytotoxicity assay. Format: cell-based, human. The settings on record: Homo sapiens, NCI-H1299, 72 h, read-out: IC50 and 95%CI. As to the method:
as §1

For data set [8], the system named is HCT116. The experiment in a line: Alamar blue cytotoxicity assay. The data set is classed as cell-based, human. The settings on record: Homo sapiens, HCT-116, 72 h, read-out: IC50 and 95%CI. As to the method: as §1
For data set [9], the system named is HL-60. Description: Alamar blue cytotoxicity assay. Format: cell-based, human. The settings on record: Homo sapiens, 72 h, read-out: IC50 and 95%CI. As to the method: as §1
Data set [10] has as its system HSC-3. Description: Alamar blue cytotoxicity assay. Format: cell-based, human. The settings on record: Homo sapiens, 72 h, read-out: IC50 and 95%CI. As to the method: as §1
Data set [11] has as its system HepG2. The experiment in a line: Alamar blue cytotoxicity assay. Format: cell-based, human. The settings on record: Homo sapiens, 72 h, read-out: IC50 and 95%CI. As to the method:
as §1

Data set [12] concerns JUKART. Description: Alamar blue cytotoxicity assay. Format: cell-based, human. The settings on record: Homo sapiens, 72 h, read-out: IC50 and 95%CI. As to the method:
as §1

Data set [13] has as its system K-562. Description: Alamar blue cytotoxicity assay. The settings on record: Homo sapiens, K562, 72 h, read-out: IC50 and 95%CI. Format: cell-based, human. As to the method:
as §1

Data set [14] concerns KG-1a. The experiment in a line: Alamar blue cytotoxicity assay. The data set is classed as cell-based, human. The settings on record: Homo sapiens, 72 h, read-out: IC50 and 95%CI. As to the method: as §1
For data set [15], the system named is MDA-MB-231. Description: Alamar blue cytotoxicity assay. Format: cell-based, human. The settings on record: Homo sapiens, 72 h, read-out: IC50 and 95%CI. As to the method: as §1
For data set [16], the system named is NB4. The experiment in a line: Alamar blue cytotoxicity assay. Format: cell-based, human. The settings on record: Homo sapiens, NB-4, 72 h, read-out: IC50 and 95%CI. As to the method:
as §1

For data set [17], the system named is PANC-1. The experiment in a line: Alamar blue cytotoxicity assay. Format: cell-based, human. The settings on record: Homo sapiens, 72 h, read-out: IC50 and 95%CI. As to the method: as §1
Data set [18] deals with SCC-25. The experiment in a line: Alamar blue cytotoxicity assay. The data set is classed as cell-based, human. The settings on record: Homo sapiens, 72 h, read-out: IC50 and 95%CI. As to the method: as §1
In data set [19] the test system is SCC-9. Description: Alamar blue cytotoxicity assay. Format: cell-based, human. The settings on record: Homo sapiens, 72 h, read-out: IC50 and 95%CI. As to the method:
as §1

The subject of data set [20] is SCC4. The experiment in a line: Alamar blue cytotoxicity assay. Format: cell-based, human. The settings on record: Homo sapiens, SCC-4, 72 h, read-out: IC50 and 95%CI. As to the method: as §1
The subject of data set [21] is THP-1. Description: Alamar blue cytotoxicity assay. The data set is classed as cell-based, human. The settings on record: Homo sapiens, 72 h, read-out: IC50 and 95%CI. As to the method:
as §1

The subject of data set [22] is U-87 MG. Description: Alamar blue cytotoxicity assay. The data set is classed as cell-based, human. The settings on record: Homo sapiens, 72 h, read-out: IC50 and 95%CI. As to the method:
as §1

The subject of data set [23] is BJ. The experiment in a line: Alamar blue cytotoxicity assay, noncancerous cells. Format: cell-based, human. The settings on record: Homo sapiens, 72 h, read-out: IC50 and 95%CI. As to the method:
as §1

Data set [24] concerns MRC-5. The experiment in a line: Alamar blue cytotoxicity assay, noncancerous cells. Format: cell-based, human. The settings on record: Homo sapiens, MRC5, MRC-5 noncancerous cells, 72 h, read-out: IC50 and 95%CI. As to the method: as §1
Data set [25] relates to PBMC. The experiment in a line: Alamar blue cytotoxicity assay, noncancerous cells. Format: cell-based, human. The settings on record: Homo sapiens, 72 h, read-out: IC50 and 95%CI. As to the method: as §1
In data set [26] the test system is CR01 (colorectal carcinoma). Description: Alamar blue viability of primary cancer cells. Format: cell-based, human. The settings on record: primary CRC (first listed); 25 μg/ml (RXC 31.3 μM, DOX 46 μM); 96 h. As to the method: as §1
(§2) CR03 (metastatic cholangiocarcinoma) CR04 (malignant papillary mesothelioma) […]
(§3) Figure S1. […] Cells were exposed to 25 […]
(§4) measured after 96 h using the Alamar blue assay. The data are presented as the […]
(§5) mean ± S.E.M. of four replicates. * P < 0.05 compared to CTL by one-way ANOVA […]
(§6) followed by Dunnett's multiple comparisons test. […]

The subject of data set [27] is CR03 (metastatic cholangiocarcinoma). The experiment in a line: Alamar blue viability of primary cancer cells. Format: cell-based, human. The settings on record: 25 μg/ml (RXC 31.3 μM, DOX 46 μM), 96 h. As to the method: as §1, §2, §3, §4, §5, §6
For data set [28], the system named is CR04 (malignant papillary mesothelioma). Description: Alamar blue viability of primary cancer cells. Format: cell-based, human. The settings on record: primary papilliferous malignant mesothelioma; 25 μg/ml (RXC 31.3 μM, DOX 46 μM); 96 h. As to the method: as §1, §2, §3, §4, §5, §6
The test system of data set [29] is HCT116 cells. The experiment in a line: Cell cycle distribution and internucleosomal DNA fragmentation by flow cytometry. Format: cell-based, human. The settings on record: 1 µM, positive control. As to the method: For quantification of internucleosomal DNA fragmentation and cell cycle distribution, the cells were stained with PI using a solution containing 0.1% Triton X-100, 2 µg/ml PI, 0.1% sodium citrate, and 100 µg/ml RNAse (all from Sigma-Aldrich) and incubated in the dark for 15 min at room temperature. Finally, cell fluorescence was measured using flow cytometry.
For all flow cytometry analyses, cell fluorescence was measured with a BD LSRFortessa cytometer and analyzed by BD FACSDiva Software (BD Biosciences) and FlowJo Software 10 (FlowJo LLC; Ashland, OR, USA). At least 10,000 events were evaluated per sample for intracellular staining, and at least 30,000 events were acquired per sample for cell surface protein staining. FSC-A versus FCS-H and SCC-A versus SCC-H were used to remove the doublets. The analysis excluded cellular debris.
On the technique in general: A flow cytometer gives signals particle by particle.

Data set [30] has as its system HCT116 cells. Description: CRC tumor growth xenograft model. Format: in vivo, C. B-17 SCID mice. The settings on record: RXC 2 mg/kg, DOX 0.8 mg/kg, i.p. once a day for 2 weeks. As to the method: HCT116 cells (10^7 cells/500 μl) were inoculated subcutaneously into the left front armpit of mice, as previously reported. The animals were then treated intraperitoneally (200 μl/animal) once a day for 2 weeks. […] The animals were euthanized with an anesthetic overdose (thiopental, 100 mg/kg) 1 day after treatment ended, and tumors were excised, weighed, and processed for histological analysis. The inhibition ratio (percent) was calculated as follows: inhibition ratio (percent) = [(A − B)/A] × 100, where A is the average tumor weight of the negative control and B is the treated group.

The conditions of data set [31]: RXC 2 mg/kg, DOX 0.8 mg/kg.
Source text: To evaluate toxicological features, all animals were weighed at the beginning and end of the experiment. Throughout the experiment, the animals were monitored for abnormalities. An Advia 60 hematology system was used to perform hematological analyses (Bayer, Leverkusen, Germany). The livers, kidneys, lungs, and hearts were removed, weighed, and examined for color change, gross lesion formation, and/or hemorrhaging before being fixed in 4% formaldehyde, dehydrated in a graded alcohol series, washed in xylene, and embedded in paraffin wax. The tissue was cut into 5 μm thick slices, stained with hematoxylin-eosin and/or periodic acid-Schiff (liver and kidney), and examined histologically under optical microscopy.
Data set [32] concerns HCT116 cells. Description: Functional cell death assay with inhibitors/activator. The data set is classed as cell-based, human. The settings on record: then 10 µM RXC for 48 h; for effect of autophagy inhibitor on RXC-induced cell death: pretreated with 50 µM CQ or 5 mM 3-MA, annexin V-FITC/PI. From the text: (§7) For apoptosis detection or functional assays, cell viability was quantified using annexin V-FITC/PI (FITC Annexin V Apoptosis Detection Kit I, BD Biosciences, San Jose, CA, USA) or YO-PRO-1/PI (Sigma-Aldrich Co.). The following inhibitors were used: chloroquine (autophagy inhibitor, Ipca Laboratories, Mumbai, MH, India); 3-methyladenine (autophagy inhibitor, Sigma-Aldrich Co.); and lithium chloride (Wnt activator, Sigma-Aldrich Co.).

In data set [33] the test system is WT SV40 MEF. The experiment in a line: Alamar blue survival curves. The data set is classed as cell-based. The settings on record: Mus musculus, 72 h. As to the method: as §1
Data set [34] relates to BAD KO SV40 MEF. Description: Alamar blue survival curves and cell death. The settings on record: Mus musculus; BAD KO SV40 MEF; Alamar blue, 72 h. Format: cell-based, mouse. As to the method: as §1, §7

In general, IC50 refers to the concentration needed to halve the response being measured.

With `COc1cccc2c1C(=O)c1c(O)c3c(c(O)c1C2=O)C[C@@](O)(C(=O)CO)C[C@@H]3O[C@H]1C[C@H](N)[C@H](O)[C@H](C)O1` [DOX, Doxorubicin, reference compound], the IC50 in [1] stood at 1700 nM; in [2], 530 nM; in data set [3], 160 nM; in [4] it was 2350 nM; in [5], 180 nM; in data set [6] it was 220 nM. Also, the IC50 in data set [7] amounted to 770 nM; in data set [8], 3.3 µM; in [9], 90 nM; in [10], 1430 nM; in data set [11], 90 nM; in [12], 30 nM. In addition, the IC50 was found to be 1500 nM in data set [13]; 400 nM in [14]; 550 nM in data set [15]; 110 nM in data set [16]; 1060 nM in data set [17]; 1580 nM in data set [18]. Moreover, the half-inhibitory concentration (IC50) in data set [19] was determined as 1210 nM; in [20] it was 70 nM; in data set [21] it was 120 nM; in data set [22], 440 nM; in [23], 730 nM; in data set [24], 1610 nM. The IC50 in [25] came out at 1280 nM. The reduced cell viability in [26] is reported as 71.0%; in data set [27] it was 65.6%; in data set [28], 64.3%. In data set [29], the cell cycle effect entry was “G2/M arrest”. The compound further had a tumor mass inhibition in data set [30] of 46.7%. The hematological analysis result in data set [31] (i.p. once a day for 2 weeks) was “Decreases in erythrocytes, hemoglobin, hematocrit, MCV and leukocytes”. Besides, the “animals died during the treatment” value in [31] (i.p. once a day for 2 weeks, n = 15 per group) is listed as “four”. In addition, in data set [31] (i.p. once a day for 2 weeks, p < 0.05), the body weight entry is “decrease in body weight”. In addition, the liver histology result in data set [31] (mainly in treated animals) is reported as “focal areas of hepatocyte coagulation necrosis”. Besides, the kidney histology entry in [31] (more evident than in control) is “focal areas of coagulation necrosis of the renal cortex tubules”.

Regarding `[Cl-].[Li+]` [lithium chloride], in [32] (pretreated with 25 mM LiCl, YO-PRO-1/PI), the “effect of Wnt activator on RXC-induced cell death” value is recorded as “ineffective in preventing RXC-induced cell death”.

Regarding `CCN(CC)CCCC(C)Nc1ccnc2cc(Cl)ccc12` (stereo not shown) [CQ, chloroquine], the “effect of autophagy inhibitor on RXC-induced cell death” value in data set [32] is listed as “enhanced RXC-induced cell death”.

Regarding `O=c1[nH]cc(F)c(=O)[nH]1` [5-FU, 5-fluorouracil, reference compound], the IC50 came to 10 µM in data set [33] and 25.8 µM in data set [34].

Regarding `Cn1cnc(N)c2ncnc1-2` [3-MA, 3-methyladenine], the “effect of autophagy inhibitor on RXC-induced cell death” value in data set [32] is given as “enhanced RXC-induced cell death”.
